Experimental data taken from US6784137B2, “6-aryl-4-aminopicolinates and their use as herbicides” (Dow AgroSciences LLC, priority 2001, dated 2004).

Which melting point does the source give for `COc1ccc(-c2cc(N)c(Cl)c(C(=O)O)n2)cn1` [Compound 213, 4-Amino-3-chloro-6-(6-methoxy-3-pyridinyl)pyridine-2-carboxylic acid] here?
Its melting point is 110 °C (dec.).

With `Nc1c(Cl)c(C(=O)O)nc(-c2cncs2)c1Cl` [Compound 241, 4-Amino-3,5-dichloro-6-(5-thiazolyl)pyridine-2-carboxylic acid] as the compound, how does the melting point read?
The melting point was 175 to 177 °C.

Which melting point does the source give for `Nc1cc(-c2nc3ccccc3o2)nc(C(=O)O)c1Cl` [Compound 226, 4-Amino-3-chloro-6-(2-benzoxazolyl)pyridine-2-carboxylic acid] here?
The melting point was 262 °C (dec.).

With `COC(=O)c1nc(-c2ccsc2)cc(NC(C)=O)c1Cl` [Compound 101, Methyl 4-acetamido-3-chloro-6-(3-thienyl)pyridine-2-carboxylate] as the compound, how does the melting point read?
The melting point was 133 °C.

For `COC(=O)c1nc(-c2cc3ccccc3s2)cc(NC(C)=O)c1Cl` [Compound 97, Methyl 4-acetamido-3-chloro-6-(2-benzothienyl)pyridine-2-carboxylate], which melting point is on record?
The melting point was 184 to 185 °C.

For `COC(=O)c1nc(-c2cc(Cl)c(C)cc2F)cc(NC(C)=O)c1Cl` [Compound 78, Methyl 4-acetamido-3-chloro-6-(5-chloro-2-fluoro-4-methylphenyl)pyridine-2-carboxylate], which melting point is on record?
Its melting point is 187 to 195 °C.

For `COCc1cc(-c2cc(N)c(Cl)c(C(=O)O)n2)ccc1Cl` [Compound 195, 4-Amino-3-chloro-6-(4-chloro-3-methoxymethylphenyl)pyridine-2-carboxylic acid], which melting point is on record?
The melting point was 162 °C.

Which melting point does the source give for `COC(=O)c1nc(-c2ccccn2)cc(N)c1Cl` [Compound 109, Methyl 4-amino-3-chloro-6-(2-pyridinyl)pyridine-2-carboxylate] here?
Its melting point is 142 to 145 °C.

Which melting point does the source give for `COC(=O)c1nc(-c2ccccc2Cl)cc(N)c1Cl` [Compound 26, Methyl 4-amino-3-chloro-6-(2-chlorophenyl)pyridine-2-carboxylate] here?
The melting point was 115 to 117 °C.

With `COCc1cc(-c2cc(N)c(Cl)c(C(=O)OC)n2)ccc1Cl` [Compound 71, Methyl 4-amino-3-chloro-6-(4-chloro-3-methoxymethylphenyl)pyridine-2-carboxylate] as the compound, how does the melting point read?
Its melting point is 73 to 74 °C.

With `COC(=O)c1nc(-c2ccc(F)cc2Cl)cc(NC(C)=O)c1Cl` [Compound 54, Methyl 4-acetamido-3-chloro-6-(2-chloro-4-fluorophenyl)pyridine-2-carboxylate] as the compound, how does the melting point read?
The melting point was 162 to 163 °C.

Which melting point does the source give for `COC(=O)c1nc(-c2c(C)noc2C)cc(N)c1Cl` [Compound 100, Methyl 4-amino-3-chloro-6-(3,5-dimethyl-4-isoxazolyl)pyridine-2-carboxylate] here?
The melting point was 143 °C.

For `COCc1cc(-c2cc(NC(C)=O)c(Cl)c(C(=O)OC)n2)ccc1Cl` [Compound 70, Methyl 4-acetamido-3-chloro-6-(4-chloro-3-methoxymethylphenyl)pyridine-2-carboxylate], which melting point is on record?
The melting point was 120 to 122 °C.

With `COC(=O)c1nc(-c2ccc3c(c2)CCC3)cc(NC(C)=O)c1Cl` [Compound 74, Methyl 4-acetamido-3-chloro-6-(5-indanyl)pyridine-2-carboxylate] as the compound, how does the melting point read?
The melting point was 132 to 134 °C.

Which melting point does the source give for `Nc1cc(-c2ccccc2)nc(C(=O)O)c1Cl` [Compound 135, 4-Amino-3-chloro-6-(phenyl)pyridine-2-carboxylic acid] here?
The melting point was 180 to 181 °C (dec.).

For `COC(=O)c1nc(-c2cc(C(F)(F)F)cc(C(F)(F)F)c2)cc(N)c1Cl` [Compound 46, Methyl 4-amino-3-chloro-6-(3,5-bis-(trifluoromethyl)phenyl)pyridine-2-carboxylate], which melting point is on record?
The melting point was 139 to 140 °C.

For `Cc1ccc(-c2cc(N)c(Cl)c(C(=O)O)n2)c(Cl)c1` [Compound 190, 4-Amino-3-chloro-6-(2-chloro-4-methylphenyl)pyridine-2-carboxylic acid], which melting point is on record?
Its melting point is 71 to 72 °C.

With `Nc1cc(-c2c(F)cccc2F)nc(C(=O)O)c1Cl` [Compound 169, 4-Amino-3-chloro-6-(2,6-difluorophenyl)pyridine-2-carboxylic acid] as the compound, how does the melting point read?
Its melting point is 165 to 166 °C.

Which melting point does the source give for `COC(=O)c1nc(-c2cc3ccccc3o2)cc(N)c1Cl` [Compound 96, Methyl 4-amino-3-chloro-6-(2-benzofuranyl)pyridine-2-carboxylate] here?
Its melting point is 182 to 183 °C.

For `Nc1cc(-c2ccc(Cl)cc2C(F)(F)F)nc(C(=O)O)c1Cl` [Compound 182, 4-Amino-3-chloro-6-(4-chloro-2-(trifluoromethyl)phenyl)pyridine-2-carboxylic acid], which melting point is on record?
Its melting point is 178 to 180 °C.

With `CC(=O)c1ccc(-c2cc(N)c(Cl)c(C(=O)O)n2)cc1` [Compound 144, 4-Amino-3-chloro-6-(4-acetylphenyl)pyridine-2-carboxylic acid] as the compound, how does the melting point read?
Its melting point is 177 to 178 °C.

Which melting point does the source give for `COc1ccc(-c2cc(N)c(Cl)c(C(=O)O)n2)cc1OC` [Compound 185, 4-Amino-3-chloro-6-(3,4-dimethoxyphenyl)pyridine-2-carboxylic acid] here?
Its melting point is 182 to 183 °C.

Which melting point does the source give for `CCCCOC(=O)c1nc(-c2ccc(C)cc2)cc(N)c1Cl` [Compound 249, Butyl 4-amino-3-chloro-6-(4-methylphenyl)pyridine-2-carboxylate] here?
Its melting point is 60 to 62 °C.

Which melting point does the source give for `COC(=O)c1nc(-c2cc(Cl)ccc2Cl)cc(NC(C)=O)c1Cl` [Compound 57, Methyl 4-acetamido-3-chloro-6-(2,5-dichlorophenyl)pyridine-2-carboxylate] here?
Its melting point is 143 °C.

For `COC(=O)c1nc(-c2ccc(Cl)c(C)c2)cc(N)c1Cl` [Compound 38, Methyl 4-amino-3-chloro-6-(4-chloro-3-methylphenyl)pyridine-2-carboxylate], which melting point is on record?
The melting point was 155 to 156 °C.

With `Cc1cc(F)c(-c2cc(N)c(Cl)c(C(=O)O)n2)cc1Cl` [Compound 192, 4-Amino-3-chloro-6-(5-chloro-2-fluoro-4-methylphenyl)pyridine-2-carboxylic acid] as the compound, how does the melting point read?
Its melting point is 173 to 175 °C.

For `Nc1cc(-c2cc(Cl)ccc2Cl)nc(C(=O)O)c1Cl` [Compound 177, 4-Amino-3-chloro-6-(2,5-dichlorophenyl)pyridine-2-carboxylic acid], which melting point is on record?
The melting point was 213 to 215 °C.

For `COC(=O)c1nc(-c2cccs2)cc(N)c1Cl` [Compound 106, Methyl 4-amino-3-chloro-6-(2-thienyl)pyridine-2-carboxylate], which melting point is on record?
Its melting point is 138 to 139 °C.

With `COC(=O)c1nc(-c2ccco2)c(Cl)c(N)c1Cl` [Compound 104, Methyl 4-amino-3,5-dichloro-6-(2-furanyl)pyridine-2-carboxylate] as the compound, how does the melting point read?
The melting point was 116 to 117 °C.

With `Nc1cc(-c2ccc(CO)cc2)nc(C(=O)O)c1Cl` [Compound 159, 4-Amino-3-chloro-6-(4-hydroxymethylphenyl)pyridine-2-carboxylic acid] as the compound, how does the melting point read?
The melting point was 181 to 182 °C.

Which melting point does the source give for `COC(=O)c1nc(-c2ccco2)cc(N)c1Cl` [Compound 110, Methyl 4-amino-3-chloro-6-(2-furanyl)pyridine-2-carboxylate] here?
The melting point was 117 °C.

With `COC(=O)c1nc(-c2ccc(Cl)c(Cl)c2)cc(N)c1Cl` [Compound 40, Methyl 4-amino-3-chloro-6-(3,4-dichlorophenyl)pyridine-2-carboxylate] as the compound, how does the melting point read?
The melting point was 170 °C.

With `COC(=O)c1nc(-c2cccs2)c(Cl)c(N)c1Cl` [Compound 105, Methyl 4-amino-3,5-dichloro-6-(2-thienyl)pyridine-2-carboxylate] as the compound, how does the melting point read?
The melting point was 132 °C.

With `Nc1cc(-c2ccccc2F)nc(C(=O)O)c1Cl` [Compound 142, 4-Amino-3-chloro-6-(2-fluorophenyl)pyridine-2-carboxylic acid] as the compound, how does the melting point read?
The melting point was 121 to 122 °C.

Which melting point does the source give for `COC(=O)c1nc(-c2cc(Br)ccc2OC)cc(N)c1Cl` [Compound 32, Methyl 4-amino-3-chloro-6-(5-bromo-2-methoxyphenyl)pyridine-2-carboxylate] here?
The melting point was 191 to 192 °C.

Which melting point does the source give for `COc1ccc(-c2nc(C(=O)O)c(Cl)c(N)c2Cl)cc1` [Compound 134, 4-Amino-3,5-dichloro-6-(4-methoxyphenyl)pyridine-2-carboxylic acid] here?
The melting point was 139 to 140 °C (dec.).

Which melting point does the source give for `COC(=O)c1nc(-c2nnnn2C)cc(N)c1Cl` [Compound 10, Methyl 4-amino-3-chloro-6-(1-methyl-1H-tetrazol-5-yl)pyridine-2-carboxylate] here?
Its melting point is 239 to 241 °C.

Which melting point does the source give for `CCOC(=O)c1nc(-c2ccc(C)cc2)cc(N)c1Cl` [Compound 263, Ethyl 4-amino-3-chloro-6-(4-methylphenyl)pyridine-2-carboxylate] here?
The melting point was 129 to 130 °C.

Which melting point does the source give for `COC(=O)c1nc(-c2ccc3c(c2)CCO3)cc(N)c1Cl` [Compound 77, Methyl 4-amino-3-chloro-6-(2,3-dihydro-5-benzofuranyl)pyridine-2-carboxylate] here?
Its melting point is 143 °C.

For `CCCCCCCCCCOC(=O)c1nc(-c2ccc(Cl)cc2)c(F)c(N)c1Cl` [Compound 244, Decyl 4-amino-3-chloro-5-fluoro-6-(4-chlorophenyl)pyridine-2-carboxylate], which melting point is on record?
Its melting point is 62 to 63 °C.

Which melting point does the source give for `COC(=O)c1nc(-c2cncnc2)cc(N)c1Cl` [Compound 126, Methyl 4-amino-3-chloro-6-(5-pyrimidinyl)pyridine-2-carboxylate] here?
Its melting point is 195 °C.

For `COC(=O)c1nc(-c2cc(Cl)c(C)cc2F)cc(N)c1Cl` [Compound 79, Methyl 4-amino-3-chloro-6-(5-chloro-2-fluoro-4-methylphenyl)pyridine-2-carboxylate], which melting point is on record?
Its melting point is 108 to 110 °C.

With `COC(=O)c1nc(-c2ccc(C)cc2)cc(NC(C)=O)c1Cl` [Compound 83, Methyl 4-acetamido-3-chloro-6-(4-methylphenyl)pyridine-2-carboxylate] as the compound, how does the melting point read?
The melting point was 156 °C.

For `COC(=O)c1nc(-c2ccc(Cl)cc2)c(F)c(N)c1Cl` [Compound 14, Methyl 4-amino-3-chloro-5-fluoro-6-(4-chlorophenyl)pyridine-2-carboxylate], which melting point is on record?
The melting point was 233 to 236 °C.

With `COC(=O)c1nc(-c2ccc(C=O)cc2)cc(N)c1Cl` [Compound 41, Methyl 4-amino-3-chloro-6-(4-formylphenyl)pyridine-2-carboxylate] as the compound, how does the melting point read?
Its melting point is 106 to 108 °C.

With `COC(=O)c1nc(-c2ccc3c(c2Cl)OCO3)cc(NC(C)=O)c1Cl` [Compound 72, Methyl 4-acetamido-3-chloro-6-(2-chloro-3,4-methylenedioxyphenyl)pyridine-2-carboxylate] as the compound, how does the melting point read?
Its melting point is 195 to 196 °C.
